Series [1] deals with T1, D4 receptor (Homo sapiens, UniProt P21917).
T1 sequence (P21917 1-419): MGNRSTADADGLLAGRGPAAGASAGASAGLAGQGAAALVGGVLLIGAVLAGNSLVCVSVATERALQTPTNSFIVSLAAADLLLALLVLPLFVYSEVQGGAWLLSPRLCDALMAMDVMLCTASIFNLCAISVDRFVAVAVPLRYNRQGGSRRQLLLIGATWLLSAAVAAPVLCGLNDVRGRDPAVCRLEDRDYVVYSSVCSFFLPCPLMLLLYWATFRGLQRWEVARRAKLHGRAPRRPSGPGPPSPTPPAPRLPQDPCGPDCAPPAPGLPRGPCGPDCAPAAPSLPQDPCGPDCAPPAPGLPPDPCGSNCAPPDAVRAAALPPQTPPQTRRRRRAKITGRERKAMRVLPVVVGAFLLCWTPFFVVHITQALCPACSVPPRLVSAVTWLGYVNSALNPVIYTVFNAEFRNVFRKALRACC
Format: binding.

Series [2] is described as follows: Mouse liver microsomal intrinsic clearance. The class given is in vitro ADME. Conditions: for CLint scaled: liver microsomes; for Predicted hepatic clearance mCLHEP: well-stirred organ CL model, binding terms excluded.
Series [3] has as its target T2, α2A (Homo sapiens, UniProt P08913).
T2 sequence (P08913 1-465): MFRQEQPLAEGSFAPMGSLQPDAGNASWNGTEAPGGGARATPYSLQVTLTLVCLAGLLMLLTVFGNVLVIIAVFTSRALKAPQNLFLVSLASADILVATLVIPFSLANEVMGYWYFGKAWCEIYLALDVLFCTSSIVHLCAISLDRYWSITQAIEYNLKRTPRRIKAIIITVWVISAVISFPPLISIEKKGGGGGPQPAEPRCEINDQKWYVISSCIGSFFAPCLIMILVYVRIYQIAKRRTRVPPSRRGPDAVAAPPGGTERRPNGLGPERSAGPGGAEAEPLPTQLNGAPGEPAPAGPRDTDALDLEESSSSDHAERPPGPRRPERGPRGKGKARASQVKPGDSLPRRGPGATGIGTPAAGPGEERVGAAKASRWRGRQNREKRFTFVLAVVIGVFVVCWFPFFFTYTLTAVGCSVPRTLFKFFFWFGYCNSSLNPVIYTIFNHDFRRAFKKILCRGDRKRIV
As to the kind of experiment: PDSP panel binding, α2A.

Series [4] can be described thus: Human liver microsomal intrinsic clearance. Conditions: human; for CLint scaled: liver microsomes, Intrinsic clearance hCLINT, human liver microsomes; for Predicted hepatic clearance hCLHEP: well-stirred organ CL model, binding terms excluded. Format: in vitro ADME.
The target in series [5] is σ2 receptor (Homo sapiens, UniProt Q5BJF2). As to the kind of experiment: σ2 receptor radioligand binding, [3H]DTG, HEK293 membranes. The settings on record: ratio, σ1 over σ2.
Series [6] deals with T3, α2C (Homo sapiens, UniProt P18825).
T3 sequence (P18825 1-462): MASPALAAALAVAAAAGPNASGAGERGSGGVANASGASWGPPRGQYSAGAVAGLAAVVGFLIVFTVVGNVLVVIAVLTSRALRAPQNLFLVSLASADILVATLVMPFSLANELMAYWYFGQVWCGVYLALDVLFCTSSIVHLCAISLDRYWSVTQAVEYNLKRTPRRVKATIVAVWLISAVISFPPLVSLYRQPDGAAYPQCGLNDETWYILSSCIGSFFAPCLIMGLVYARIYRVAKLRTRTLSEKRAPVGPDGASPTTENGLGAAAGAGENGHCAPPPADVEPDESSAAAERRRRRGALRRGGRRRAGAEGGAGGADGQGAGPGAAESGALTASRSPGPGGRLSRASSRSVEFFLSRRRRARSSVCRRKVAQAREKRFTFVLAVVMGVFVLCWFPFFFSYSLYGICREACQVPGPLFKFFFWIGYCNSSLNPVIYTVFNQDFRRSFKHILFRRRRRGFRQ
In words: PDSP panel binding, α2C.

The nature of series [7]: Mouse brain homogenate binding. The class given is in vitro ADME.
Series [8] concerns the target SERT (Homo sapiens, UniProt P31645). As to the kind of experiment: PDSP panel binding, SERT. Conditions: σ1 over SERT.
Series [9] can be described thus: Mouse plasma protein binding, equilibrium dialysis. Format: in vitro ADME. Conditions: mouse, plasma, fu (mPPB), fraction, used for Kp,uu.
Series [10] can be described thus: Discrete mouse in vivo PK study, plasma and brain. The settings on record: for half-life: ip, 5 mg/kg.
In series [11] the target is D1 receptor (Homo sapiens, UniProt P21728). In words: D1 receptor radioligand binding, [3H]SCH23390, HEK293 membranes.
Series [12] can be described thus: Human plasma protein binding, equilibrium dialysis. The class given is in vitro ADME. For orientation: In equilibrium dialysis only unbound substance equilibrates across the membrane.

Where only a bound is given, the exact number is not on record here.

σ2 receptor, sequence (Q5BJF2 whole entry, species assumed): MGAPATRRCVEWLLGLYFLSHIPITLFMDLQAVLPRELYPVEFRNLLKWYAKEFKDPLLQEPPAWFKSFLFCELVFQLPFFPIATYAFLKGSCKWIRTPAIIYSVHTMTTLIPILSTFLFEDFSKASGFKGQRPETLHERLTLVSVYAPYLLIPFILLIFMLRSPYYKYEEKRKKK
D1 receptor, sequence (P21728 whole entry): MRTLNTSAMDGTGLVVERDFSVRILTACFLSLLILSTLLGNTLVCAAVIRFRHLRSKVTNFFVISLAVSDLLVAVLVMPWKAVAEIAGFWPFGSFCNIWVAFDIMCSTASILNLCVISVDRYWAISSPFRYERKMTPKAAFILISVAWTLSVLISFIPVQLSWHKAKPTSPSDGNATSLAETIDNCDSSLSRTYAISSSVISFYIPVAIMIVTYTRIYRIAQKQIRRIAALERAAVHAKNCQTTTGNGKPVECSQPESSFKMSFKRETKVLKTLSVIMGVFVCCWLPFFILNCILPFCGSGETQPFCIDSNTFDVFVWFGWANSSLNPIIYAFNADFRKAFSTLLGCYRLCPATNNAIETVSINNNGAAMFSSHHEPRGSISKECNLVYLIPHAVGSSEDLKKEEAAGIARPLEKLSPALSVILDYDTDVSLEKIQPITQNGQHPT
SERT, sequence (P31645 whole entry, species assumed): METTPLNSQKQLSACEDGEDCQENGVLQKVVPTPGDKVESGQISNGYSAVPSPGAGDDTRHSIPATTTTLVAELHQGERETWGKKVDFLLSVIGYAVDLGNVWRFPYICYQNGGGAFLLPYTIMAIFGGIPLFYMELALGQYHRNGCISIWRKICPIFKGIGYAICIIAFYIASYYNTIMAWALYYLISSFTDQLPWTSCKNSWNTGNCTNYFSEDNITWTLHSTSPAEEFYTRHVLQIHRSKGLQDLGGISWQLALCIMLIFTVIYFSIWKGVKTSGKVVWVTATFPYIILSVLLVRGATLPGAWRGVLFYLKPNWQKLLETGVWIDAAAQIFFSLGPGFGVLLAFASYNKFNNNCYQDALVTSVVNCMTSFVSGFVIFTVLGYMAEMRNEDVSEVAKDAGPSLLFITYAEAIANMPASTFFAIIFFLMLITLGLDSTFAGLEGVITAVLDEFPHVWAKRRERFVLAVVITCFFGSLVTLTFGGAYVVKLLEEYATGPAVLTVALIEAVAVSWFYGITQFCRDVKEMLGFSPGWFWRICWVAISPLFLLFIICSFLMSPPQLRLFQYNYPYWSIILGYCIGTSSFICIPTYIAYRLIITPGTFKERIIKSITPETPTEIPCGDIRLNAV

Compound `Fc1ccc(CN2CCCC23CCN(Cc2cn4ccccc4n2)C3)cc1F` (centres unmarked) [Compound 25a, 1-(3,4-difluorobenzyl)-7-(imidazo[1,2-a]pyridin-2-ylmethyl)-1,7-diazaspiro[4.4]nonane] returned an inhibitory constant (Ki) in series [1] of over 10 µM. In addition, in series [2], the intrinsic clearance (CLint scaled) is 696 mL/min/kg and the “Predicted hepatic clearance mCLHEP” value is 79.8 mL/min/kg. The Ki in series [3] was determined as 0.697 µM. In series [3] (σ1 over α2A), the “selectivity versus α2A” value stood at 194. Besides, in series [4], the CLint scaled stood at 223 mL/min/kg and the “Predicted hepatic clearance hCLHEP” value is reported as 18.4 mL/min/kg. Also, the “selectivity σ1:σ2” value in series [5] stood at 6.
For `Fc1ccc(COC2CCN(Cc3ccc4[nH]cnc4c3)CC2)cc1F` [Compound 10a, 5-((4-((3,4-difluorobenzyl)oxy)piperidin-1-yl)methyl)-1H-benzo[d]imidazole], the “selectivity against the dopamine receptor family” value in series [1] (σ1 over D1-5) is listed as over 490 fold. Also, in [2], the “Predicted hepatic clearance mCLHEP” value is listed as 46.0 mL/min/kg. In addition, the Ki in series [6] was determined as 0.853 µM. Besides, the “selectivity versus α2C” value in series [6] (σ1 over α2C) is reported as 103. Also, the intrinsic metabolic clearance (CLint scaled) in series [4] was under 20 mL/min/kg. Besides, the “Predicted hepatic clearance hCLHEP” value in series [4] was under 10 mL/min/kg. Moreover, in series [5], the “selectivity σ1:σ2” value was found to be 20. Also, the fraction unbound in [7] amounted to 0.205; in series [9], 0.358. Also, the “selectivity versus SERT” value in [8] is recorded as 20. Also, in [10] (IP 5 mg/kg, 5 h, free brain to free plasma concentration), the “B:P Kp,uu” value was 3.68. Besides, the half-life in [10] (brain) was 9.1 h; in series [10] (plasma), 2.1 h.
For the compound `Fc1cc(COC2CCN(Cc3ccc4[nH]cnc4c3)CC2)ccc1Cl` [Compound 10b, 5-((4-((4-chloro-3-fluorobenzyl)oxy)piperidin-1-yl)methyl)-1H-benzo[d]imidazole], the “Predicted hepatic clearance mCLHEP” value in series [2] was 45.1 mL/min/kg. Also, the “Predicted hepatic clearance hCLHEP” value in [4] is 14.2 mL/min/kg. The unbound share (fraction unbound) was found to be 0.093 in series [7] and 0.189 in [9]. Besides, the half-life in series [10] (brain) is 6.9 h; in series [10] (plasma), 3.7 h.
As for `COc1ccc(CO[C@H]2CCCN(Cc3cccc(C)c3)C2)cc1F` [Compound 19h, (S)-3-((3-fluoro-4-methoxybenzyl)oxy)-1-(3-methylbenzyl)piperidine], the Ki in series [1] and in [11] was over 10 µM in each case. For the same compound, the inhibition at 10 µM in series [1] (read-out: D4 % inhibition) stood at 46%.
In the case of `COc1ccc(CN2CCC[C@@H](OCc3ccc(F)c(C)c3)C2)cc1F` [Compound 19b, (R)-3-((4-fluoro-3-methylbenzyl)oxy)-1-(3-fluoro-4-methoxybenzyl)piperidine], in [2], the CLint scaled was found to be 961 mL/min/kg and the “Predicted hepatic clearance mCLHEP” value is 82.4 mL/min/kg. In series [4], the CLint scaled is 674 mL/min/kg and the “Predicted hepatic clearance hCLHEP” value is 19.5 mL/min/kg. The “Stability in human plasma (hPPB column)” value in series [12] is recorded as “c”.

Usually Ki stands for the dissociation constant of the complex between target and ligand, obtained from inhibition or displacement. Read a low Ki as higher affinity. As a reminder, the CLint scaled is the capacity of the preparation to metabolise the compound, expressed as a volume cleared per time. What is called fraction unbound is free concentration divided by total concentration. A lower fraction unbound goes with little free substance. What is called half-life is the time needed for the level to fall by half in the phase considered. Lower therefore signals fast loss. One may read the inhibition as the percentage by which the read-out fell short of the control.
